We go through one molecule from patent US9534221B2, “Targeting the steroidogenic pathway for treating and/or preventing allergic diseases” (National Jewish Health, priority 2013, dated 2017).

One test addresses T1, Cyp11a1 (Mus musculus, UniProt Q9QZ82).
T1 construct: mononuclear cells (MNCs) were processed from the spleens of OT-1 mice; endogenous in cells
T1 sequence (Q9QZ82 37-526): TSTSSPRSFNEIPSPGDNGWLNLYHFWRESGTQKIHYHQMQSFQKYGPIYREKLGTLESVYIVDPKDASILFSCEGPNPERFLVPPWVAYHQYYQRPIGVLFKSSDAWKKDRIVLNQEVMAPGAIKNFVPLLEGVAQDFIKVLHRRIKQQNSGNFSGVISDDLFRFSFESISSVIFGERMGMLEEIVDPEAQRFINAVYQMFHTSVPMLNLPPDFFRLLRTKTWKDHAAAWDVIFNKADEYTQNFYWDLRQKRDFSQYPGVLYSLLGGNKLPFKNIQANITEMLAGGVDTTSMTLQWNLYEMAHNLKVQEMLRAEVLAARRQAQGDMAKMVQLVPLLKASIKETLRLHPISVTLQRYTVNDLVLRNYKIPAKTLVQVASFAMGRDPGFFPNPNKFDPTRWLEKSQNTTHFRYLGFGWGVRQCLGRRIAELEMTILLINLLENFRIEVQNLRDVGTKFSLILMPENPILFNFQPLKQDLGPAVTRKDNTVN
Kind of test: Pregnenolone levels in serum of peanut sensitized and challenged mice (Cyp11a1 enzymatic activity). It counts as in vivo. To be noted: AMG 20 mg/kg, PE/PE mice; PE/PE without AMG 4.69±0.92, PBS/PE 1.99±0.11.

In a further test the test system is CD4 T cells. As to the kind of experiment: Th1, Th2, Th17 differentiation of naive CD4 T cells in vitro. In kind it is cell-based, mouse. The method, then:
Levels of IL-4, IL-13, IL-17A, and IFN-γ in cell culture supernatants were measured by ELISA (eBioscience, San Diego, Calif.) as described by the manufacturer. Pregnenolone levels in serum and cell culture supernatants were measured by ELISA (ALPCO Diagnostics, Salem, N.H.), as described by the manufacturer. Differentiation of Th1, Th2, or Th17 cells was performed as previously described with minor changes (Ashino, S., et al. Intl. Immunol. 22:503-513 (2010)). CD4^+CD45RB^+ T cells were isolated from naive TCR-transgenic mice (OT II mice) spleen using a cell sorter (MoFlo XDP, Beckman Coulter). In the presence of mitomycin-C-treated spleen cells, 5 μg/ml OVA323-339 peptide, and the inhibitor AMG ([…]), isolated naive CD4 T cells were cultured with rmIL-2 (10 ng/ml, R/D Systems), rmIL-12 (10 ng/ml, Peprotech), rmIFN-γ (5 ng/ml, Peprotech), and anti-IL-4 mAbs (10 μg/ml, eBioscience) to induce Th1 cell differentiation; with rmIL-2 (10 ng/ml, R/D Systems), rmIL-4 (5 ng/ml, Peprotech), and anti-IFN-γ mAb (10 μg/ml, eBioscience) for differentiation of Th2 cells; and […], Peprotech), anti-IL-4 mAb (10 μg/ml, eBioscience), and anti-IFN-γ mAb (10 μg/ml, eBioscience) for differentiation of Th17 cells. After 6 days of culture, the cells were washed with fresh medium and restimulated with anti-CD3/anti-CD28 for 24 hrs for assay of cytokine production. The cells were collected for quantitative RT-PCR and Western blot. In some experiments (for transduction experiment), the cells were cultured under Th1, Th2, and Th17 polarizing conditions for 5 days as described in Methods. Cultured cells were lysed as previously described (Ohnishi, H., et al. J. Allergy Clin. Immunol. 121:864-871 (2008)). Lysates were resolved by means of SDS-PAGE and transferred to nitrocellulose membranes. Proteins were detected using antibodies specific for Cyp11a1 (LifeSpan Biosciences. Seattle, Wash.) followed by chemiluminescence detection (GE Healthcare, Little Chalfont, UK). RNA was extracted from jejunal tissue homogenates or from CD4 T cells cultured in vitro using Trizol (Invitrogen). cDNA was generated using the iScript cDNA synthesis kit (Bio-Rad Laboratories, Hercules, Calif.). Quantitative real-time PCR was performed on the ABI Prism 7300 sequence detection system (Applied Biosystems, Foster City, Calif.). All primers and probes used were purchased as Tagman Gene Expression Assays from Applied Biosystems. Fold change was calculated using the Delta Delta cycle threshold (ΔΔCT) method.

[1] abbreviates: polarized Th1, Th2 or Th17 cells, AMG 400 μM.

Procedure for Cyp11a1: AMG was dissolved in 1 M hydrogen chloride and diluted with saline for in vivo studies or diluted with RPMI medium for in vitro study. The final concentration of 1 M hydrogen chloride was less than 1% and 0.05% for in vivo and in vitro, respectively. PE sensitized and challenged mice received different doses (5, 10, 20 mg/kg) of the Cyp11a1 enzyme inhibitor (PE/PE/AMG) by means of gavage using a 22-gauge feeding needle (Fisher Scientific) twice a day during the peanut challenge phase. Controls included PE sensitized and challenged but vehicle (saline) treated (PE/PE/vehicle), or sham sensitized but PE challenged and vehicle-treated (PBS/PE/vehicle) mice.

Regarding `CCC1(c2ccc(N)cc2)CCC(=O)NC1=O` (centres unmarked) [AMG, aminoglutethimide], the “Pregnenolone levels in serum” value on Cyp11a1 is 2.98 ± 0.60 ng/mL. Further, in the test with CD4 T cells (Th1 cells), the “IFNG mRNA expression” value is on record as “no significant effects”. Further, the “Pregnenolone levels in culture supernates” value in the test on CD4 T cells (Th2 cells, AMG 400 μM) was “significantly decreased”. Further, the “Pregnenolone levels in culture supernates” value in the test with CD4 T cells (Th17 cells, AMG 400 μM) was “the decreases did not reach statistical significance”. Moreover, in the test with CD4 T cells (setting [1]), the “Cyp11a1 mRNA expression levels” value is on record as “did not suppress” and the “Cyp11a1 protein expression levels” value was “did not suppress”. Besides, in the test with CD4 T cells (polarized Th1 cell cultures), the “IFN-γ levels in culture supernatants” value is “not affected”. For the same molecule, in the test with CD4 T cells (polarized Th1 cells, 400 μM), the “T-bet mRNA expression” value is on record as “did not have any effect”. Moreover, the “IL-13 levels in culture supernatants” value with CD4 T cells (polarized Th2 cell cultures) is recorded as “decreased”. In addition, the “IL13 mRNA” value with CD4 T cells (polarized Th2 cells) is “decreased”. In addition, the “GATA3 mRNA expression” value in the test with CD4 T cells (polarized Th2 cells, 400 μM) is listed as “did not have any effect”. In addition, in the test on CD4 T cells (polarized Th17 cell cultures), the “IL-17A levels in culture supernatants” value is listed as “decreased”. Besides, in the test on CD4 T cells (polarized Th17 cells), the “IL17A mRNA” value is “decreased”. For the same molecule, in the test with CD4 T cells (polarized Th17 cells, 400 μM), the “RORγt mRNA expression” value is “did not have any effect”.
